{"source": "ChEMBL document CHEMBL3758169", "about": "“4-Aminoindazolyl-dihydrofuro[3,4-d]pyrimidines as non-covalent inhibitors of mutant epidermal growth factor receptor tyrosine kinase” (Bioorg Med Chem Lett, 2016)", "key": {"Hepatocyte": {"system": "Hepatocyte", "test": "Drug metabolism in human hepatocytes assessed as glucuronidation", "type": "ADME, cell-based"}, "[1]": {"target": "Tyrosine-protein kinase Lyn (Homo sapiens) (UniProt P07948)", "sequence (P07948 2-512 limits assumed)": "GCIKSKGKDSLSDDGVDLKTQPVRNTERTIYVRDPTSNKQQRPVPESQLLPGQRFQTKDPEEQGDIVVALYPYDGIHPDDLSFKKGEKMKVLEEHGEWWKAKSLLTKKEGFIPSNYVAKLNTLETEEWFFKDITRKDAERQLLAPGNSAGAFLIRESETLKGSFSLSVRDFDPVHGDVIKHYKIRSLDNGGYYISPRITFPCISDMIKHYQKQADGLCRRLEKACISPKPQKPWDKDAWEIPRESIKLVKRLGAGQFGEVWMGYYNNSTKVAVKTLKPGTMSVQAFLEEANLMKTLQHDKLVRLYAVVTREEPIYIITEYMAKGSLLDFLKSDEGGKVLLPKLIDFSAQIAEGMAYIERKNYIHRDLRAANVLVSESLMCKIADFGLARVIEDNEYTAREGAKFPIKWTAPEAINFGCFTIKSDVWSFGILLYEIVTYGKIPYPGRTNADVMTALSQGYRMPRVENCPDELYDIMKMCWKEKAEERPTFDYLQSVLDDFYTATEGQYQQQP", "test": "Inhibition of LYNB (unknown origin) at 100 nM"}, "[2]": {"target": "Mitogen-activated protein kinase kinase kinase kinase 4 (Homo sapiens) (UniProt O95819)", "test": "Inhibition of MAP4K4 (unknown origin) at 100 nM"}, "[3]": {"target": "Maternal embryonic leucine zipper kinase (Homo sapiens) (UniProt Q14680)", "sequence (Q14680 whole entry, looked up)": "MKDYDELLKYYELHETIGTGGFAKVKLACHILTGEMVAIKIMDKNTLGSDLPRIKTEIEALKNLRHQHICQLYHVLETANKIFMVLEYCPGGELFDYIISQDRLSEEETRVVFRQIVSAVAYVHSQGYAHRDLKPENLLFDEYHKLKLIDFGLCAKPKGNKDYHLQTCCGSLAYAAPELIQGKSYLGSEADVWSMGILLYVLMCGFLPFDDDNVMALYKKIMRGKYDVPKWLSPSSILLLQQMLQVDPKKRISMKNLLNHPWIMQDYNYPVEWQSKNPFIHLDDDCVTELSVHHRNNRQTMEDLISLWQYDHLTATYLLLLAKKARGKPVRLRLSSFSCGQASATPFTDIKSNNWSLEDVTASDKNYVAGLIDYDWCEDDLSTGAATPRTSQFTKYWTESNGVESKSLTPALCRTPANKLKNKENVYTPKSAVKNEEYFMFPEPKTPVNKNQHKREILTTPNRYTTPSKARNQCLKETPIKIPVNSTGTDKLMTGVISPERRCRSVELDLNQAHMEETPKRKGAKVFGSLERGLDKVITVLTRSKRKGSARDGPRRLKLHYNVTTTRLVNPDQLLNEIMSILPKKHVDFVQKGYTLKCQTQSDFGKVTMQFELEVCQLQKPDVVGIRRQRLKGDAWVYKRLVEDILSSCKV", "test": "Inhibition of MELK (unknown origin) at 100 nM"}, "[4]": {"target": "Serine/threonine-protein kinase MRCK alpha (Homo sapiens) (UniProt Q5VT25)", "test": "Inhibition of MRCKalpha (unknown origin) at 100 nM"}, "[5]": {"target": "Serine/threonine-protein kinase 24 (Homo sapiens) (UniProt Q9Y6E0)", "sequence (Q9Y6E0 whole entry, looked up)": "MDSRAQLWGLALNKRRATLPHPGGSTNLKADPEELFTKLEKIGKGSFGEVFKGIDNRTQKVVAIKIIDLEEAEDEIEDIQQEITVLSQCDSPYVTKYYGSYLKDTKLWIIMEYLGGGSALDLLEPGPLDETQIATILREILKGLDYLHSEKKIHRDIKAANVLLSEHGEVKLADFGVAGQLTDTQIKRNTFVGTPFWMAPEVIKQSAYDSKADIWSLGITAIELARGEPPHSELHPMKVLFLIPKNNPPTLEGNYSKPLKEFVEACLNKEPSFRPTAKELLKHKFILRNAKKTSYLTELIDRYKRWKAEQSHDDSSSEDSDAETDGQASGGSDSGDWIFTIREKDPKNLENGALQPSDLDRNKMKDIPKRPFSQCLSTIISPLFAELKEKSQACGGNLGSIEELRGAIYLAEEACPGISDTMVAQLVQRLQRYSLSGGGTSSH", "test": "Inhibition of MST3 (unknown origin) at 100 nM"}, "[6]": {"target": "Misshapen-like kinase 1 (Homo sapiens) (UniProt Q8N4C8)", "test": "Inhibition of MINK1 (unknown origin) at 100 nM"}, "[7]": {"target": "Serine/threonine-protein kinase PAK 3 (Homo sapiens) (UniProt O75914)", "test": "Inhibition of PAK3 (unknown origin) at 100 nM"}, "[8]": {"system": "Platelet-derived growth factor receptor alpha (Homo sapiens), P16234 [T674I]", "test": "Inhibition of PDGFRalpha T674I mutant (unknown origin) at 100 nM"}, "[9]": {"target": "Phosphatidylinositol 3-kinase catalytic subunit type 3 (Homo sapiens) (UniProt Q8NEB9)", "sequence (Q8NEB9 whole entry)": "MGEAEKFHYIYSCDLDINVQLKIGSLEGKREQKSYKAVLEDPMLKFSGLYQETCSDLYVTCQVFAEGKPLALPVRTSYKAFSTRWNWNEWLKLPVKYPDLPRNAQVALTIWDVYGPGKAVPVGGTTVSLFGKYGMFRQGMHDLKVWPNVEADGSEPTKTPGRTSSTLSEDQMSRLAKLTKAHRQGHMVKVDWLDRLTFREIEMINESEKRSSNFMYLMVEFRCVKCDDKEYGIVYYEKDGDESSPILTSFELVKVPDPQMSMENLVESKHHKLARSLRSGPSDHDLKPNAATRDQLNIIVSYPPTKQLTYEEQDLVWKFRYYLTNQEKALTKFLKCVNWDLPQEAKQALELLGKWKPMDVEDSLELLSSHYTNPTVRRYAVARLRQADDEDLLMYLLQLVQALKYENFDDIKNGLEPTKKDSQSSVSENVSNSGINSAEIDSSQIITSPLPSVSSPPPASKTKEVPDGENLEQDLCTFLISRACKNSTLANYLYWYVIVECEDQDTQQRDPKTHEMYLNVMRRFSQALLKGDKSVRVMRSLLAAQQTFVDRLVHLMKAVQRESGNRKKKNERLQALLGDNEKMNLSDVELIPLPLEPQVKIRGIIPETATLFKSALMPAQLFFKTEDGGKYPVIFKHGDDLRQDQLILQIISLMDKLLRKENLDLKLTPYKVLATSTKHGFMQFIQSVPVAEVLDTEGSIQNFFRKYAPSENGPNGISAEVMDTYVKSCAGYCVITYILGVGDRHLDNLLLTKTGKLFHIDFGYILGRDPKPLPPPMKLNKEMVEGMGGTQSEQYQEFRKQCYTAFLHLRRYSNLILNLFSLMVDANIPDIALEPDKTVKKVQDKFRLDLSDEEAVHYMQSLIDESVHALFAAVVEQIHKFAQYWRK", "test": "Inhibition of PI3KC3/hVPS34 (unknown origin) at 100 nM"}, "[10]": {"target": "Phosphatidylinositol 4-kinase alpha (Homo sapiens) (UniProt P42356)", "test": "Inhibition of PI4Ka (unknown origin) at 100 nM"}, "[11]": {"target": "Serine/threonine-protein kinase D3 (Homo sapiens) (UniProt O94806)", "test": "Inhibition of PKD3 (unknown origin) at 100 nM"}, "[12]": {"target": "5'-AMP-activated protein kinase catalytic subunit alpha-2 (Homo sapiens) (UniProt P54646)", "test": "Inhibition of PRKAA2 (unknown origin) at 100 nM"}, "[13]": {"target": "Receptor-interacting serine/threonine-protein kinase 2 (Homo sapiens) (UniProt O43353)", "test": "Inhibition of RIPK2 (unknown origin) at 100 nM"}, "[14]": {"target": "Ribosomal protein S6 kinase alpha-2 (Homo sapiens) (UniProt Q15349)", "test": "Inhibition of RSK3 (unknown origin) at 100 nM"}, "[15]": {"target": "Tyrosine-protein kinase receptor TYRO3 (Homo sapiens) (UniProt Q06418)", "test": "Inhibition of RSE (unknown origin) at 100 nM"}, "[16]": {"target": "Serine/threonine-protein kinase Sgk3 (Homo sapiens) (UniProt Q96BR1)", "test": "Inhibition of SGK3 (unknown origin) at 100 nM"}, "[17]": {"target": "Serine/threonine-protein kinase 16 (Homo sapiens) (UniProt O75716)", "sequence (O75716 whole entry)": "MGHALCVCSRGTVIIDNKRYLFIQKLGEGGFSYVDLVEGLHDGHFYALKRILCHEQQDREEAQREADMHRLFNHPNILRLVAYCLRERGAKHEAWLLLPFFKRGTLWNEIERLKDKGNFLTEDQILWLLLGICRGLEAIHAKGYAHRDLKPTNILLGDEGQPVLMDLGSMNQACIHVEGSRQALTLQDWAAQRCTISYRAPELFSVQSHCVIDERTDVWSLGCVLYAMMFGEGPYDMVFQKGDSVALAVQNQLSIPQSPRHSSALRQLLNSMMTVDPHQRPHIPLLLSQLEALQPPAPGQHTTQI", "test": "Inhibition of STK16 (unknown origin) at 100 nM"}, "[18]": {"target": "Activated CDC42 kinase 1 (Homo sapiens) (UniProt Q07912)", "test": "Inhibition of TNK2 (unknown origin) at 100 nM"}, "[19]": {"target": "Mitogen-activated protein kinase 13 (Homo sapiens) (UniProt O15264)", "test": "Inhibition of p38delta(unknown origin) at 100 nM"}, "[20]": {"target": "Mitogen-activated protein kinase 12 (Homo sapiens) (UniProt P53778)", "test": "Inhibition of p38gamma(unknown origin) at 100 nM"}, "[21]": {"target": "Epidermal growth factor receptor (Homo sapiens, UniProt P00533, L858R/T790M)", "test": "Inhibition of EGFR T790M/L858R mutant autophosphorylation in human H1975 cells", "type": "cell-based"}, "[22]": {"target": "Tyrosine-protein kinase receptor UFO (Homo sapiens) (UniProt P30530)", "test": "Inhibition of AXL (unknown origin) at 100 nM"}, "[23]": {"target": "Casein kinase I isoform epsilon (Homo sapiens) (UniProt P49674)", "test": "Inhibition of CK1epsilon1 (unknown origin) at 100 nM"}, "[24]": {"target": "Casein kinase I isoform gamma-1 (Homo sapiens) (UniProt Q9HCP0)", "test": "Inhibition of CK1gamma1 (unknown origin) at 100 nM"}, "[25]": {"target": "Casein kinase I isoform gamma-2 (Homo sapiens) (UniProt P78368)", "sequence (P78368 whole entry, looked up, canonical isoform)": "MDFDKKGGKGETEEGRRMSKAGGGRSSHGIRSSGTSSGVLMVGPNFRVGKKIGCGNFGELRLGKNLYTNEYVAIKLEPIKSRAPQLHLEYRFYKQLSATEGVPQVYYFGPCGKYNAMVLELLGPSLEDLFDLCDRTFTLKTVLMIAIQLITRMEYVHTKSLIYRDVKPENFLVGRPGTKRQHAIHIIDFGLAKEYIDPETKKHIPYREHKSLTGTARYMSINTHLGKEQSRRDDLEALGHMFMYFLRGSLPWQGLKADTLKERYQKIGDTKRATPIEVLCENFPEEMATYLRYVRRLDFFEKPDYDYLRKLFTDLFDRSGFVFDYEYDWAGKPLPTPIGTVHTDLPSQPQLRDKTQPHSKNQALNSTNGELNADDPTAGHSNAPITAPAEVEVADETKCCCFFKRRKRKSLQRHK", "test": "Inhibition of CK1gamma2 (unknown origin) at 100 nM"}, "[26]": {"target": "Dual specificity protein kinase CLK3 (Homo sapiens) (UniProt P49761)", "sequence (P49761 whole entry, looked up)": "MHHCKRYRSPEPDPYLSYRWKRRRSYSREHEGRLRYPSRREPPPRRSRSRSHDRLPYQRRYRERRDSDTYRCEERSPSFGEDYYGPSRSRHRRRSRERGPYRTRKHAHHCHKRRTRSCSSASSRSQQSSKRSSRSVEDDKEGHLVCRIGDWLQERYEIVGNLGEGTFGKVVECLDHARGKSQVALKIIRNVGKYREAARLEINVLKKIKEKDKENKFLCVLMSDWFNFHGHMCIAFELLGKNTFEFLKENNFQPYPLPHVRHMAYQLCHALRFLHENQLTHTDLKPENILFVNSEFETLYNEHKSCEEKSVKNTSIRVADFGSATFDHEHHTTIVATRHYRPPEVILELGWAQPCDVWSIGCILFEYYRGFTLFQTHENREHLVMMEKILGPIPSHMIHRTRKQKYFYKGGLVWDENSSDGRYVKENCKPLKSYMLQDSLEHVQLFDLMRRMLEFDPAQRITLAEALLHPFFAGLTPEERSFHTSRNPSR", "test": "Inhibition of CLK3 (unknown origin) at 100 nM"}, "[27]": {"target": "Tyrosine-protein kinase CSK (Homo sapiens) (UniProt P41240)", "sequence (P41240 2-450 limits assumed)": "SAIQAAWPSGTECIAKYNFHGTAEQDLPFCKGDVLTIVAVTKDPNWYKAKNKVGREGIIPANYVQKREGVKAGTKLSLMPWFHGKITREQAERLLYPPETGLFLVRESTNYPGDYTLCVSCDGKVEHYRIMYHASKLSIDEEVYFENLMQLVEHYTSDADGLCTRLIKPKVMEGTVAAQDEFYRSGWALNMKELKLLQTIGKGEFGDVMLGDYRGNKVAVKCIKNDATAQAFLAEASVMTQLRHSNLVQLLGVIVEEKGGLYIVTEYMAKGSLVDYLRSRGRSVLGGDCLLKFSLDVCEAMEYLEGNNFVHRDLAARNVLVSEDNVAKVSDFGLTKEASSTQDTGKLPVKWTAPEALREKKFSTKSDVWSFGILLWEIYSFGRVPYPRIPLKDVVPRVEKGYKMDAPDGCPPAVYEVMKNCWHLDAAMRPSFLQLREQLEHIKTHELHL", "test": "Inhibition of CSK (unknown origin) at 100 nM"}, "[28]": {"target": "Calcium/calmodulin-dependent protein kinase type II subunit alpha (Homo sapiens) (UniProt Q9UQM7)", "test": "Inhibition of CamKIIalpha (unknown origin) at 100 nM"}, "[29]": {"target": "Calcium/calmodulin-dependent protein kinase type II subunit delta (Homo sapiens) (UniProt Q13557)", "test": "Inhibition of CamKIIdelta (unknown origin) at 100 nM"}, "[30]": {"target": "Serine/threonine-protein kinase 17A (Homo sapiens) (UniProt Q9UEE5)", "test": "Inhibition of DRAK1 (unknown origin) at 100 nM"}, "[31]": {"target": "Dual specificity tyrosine-phosphorylation-regulated kinase 3 (Homo sapiens) (UniProt O43781)", "test": "Inhibition of DYRK3 (unknown origin) at 100 nM"}, "[32]": {"target": "Ephrin type-A receptor 1 (Homo sapiens) (UniProt P21709)", "test": "Inhibition of EPHA1 (unknown origin) at 100 nM"}, "[33]": {"target": "Ephrin type-A receptor 3 (Homo sapiens) (UniProt P29320)", "test": "Inhibition of EPHA3 (unknown origin) at 100 nM"}, "[34]": {"target": "Ephrin type-A receptor 5 (Homo sapiens) (UniProt P54756)", "test": "Inhibition of EPHA5 (unknown origin) at 100 nM"}, "[35]": {"target": "Receptor tyrosine-protein kinase erbB-2 (Homo sapiens) (UniProt P04626)", "test": "Inhibition of ERBB2 (unknown origin) at 100 nM"}, "[36]": {"target": "Vascular endothelial growth factor receptor 1 (Homo sapiens) (UniProt P17948)", "test": "Inhibition of FLT1 (unknown origin) at 100 nM"}, "[37]": {"target": "Tyrosine-protein kinase FRK (Homo sapiens) (UniProt P42685)", "test": "Inhibition of FRK (unknown origin) at 100 nM"}, "[38]": {"target": "Serine/threonine-protein kinase haspin (Homo sapiens) (UniProt Q8TF76)", "sequence (Q8TF76 whole entry)": "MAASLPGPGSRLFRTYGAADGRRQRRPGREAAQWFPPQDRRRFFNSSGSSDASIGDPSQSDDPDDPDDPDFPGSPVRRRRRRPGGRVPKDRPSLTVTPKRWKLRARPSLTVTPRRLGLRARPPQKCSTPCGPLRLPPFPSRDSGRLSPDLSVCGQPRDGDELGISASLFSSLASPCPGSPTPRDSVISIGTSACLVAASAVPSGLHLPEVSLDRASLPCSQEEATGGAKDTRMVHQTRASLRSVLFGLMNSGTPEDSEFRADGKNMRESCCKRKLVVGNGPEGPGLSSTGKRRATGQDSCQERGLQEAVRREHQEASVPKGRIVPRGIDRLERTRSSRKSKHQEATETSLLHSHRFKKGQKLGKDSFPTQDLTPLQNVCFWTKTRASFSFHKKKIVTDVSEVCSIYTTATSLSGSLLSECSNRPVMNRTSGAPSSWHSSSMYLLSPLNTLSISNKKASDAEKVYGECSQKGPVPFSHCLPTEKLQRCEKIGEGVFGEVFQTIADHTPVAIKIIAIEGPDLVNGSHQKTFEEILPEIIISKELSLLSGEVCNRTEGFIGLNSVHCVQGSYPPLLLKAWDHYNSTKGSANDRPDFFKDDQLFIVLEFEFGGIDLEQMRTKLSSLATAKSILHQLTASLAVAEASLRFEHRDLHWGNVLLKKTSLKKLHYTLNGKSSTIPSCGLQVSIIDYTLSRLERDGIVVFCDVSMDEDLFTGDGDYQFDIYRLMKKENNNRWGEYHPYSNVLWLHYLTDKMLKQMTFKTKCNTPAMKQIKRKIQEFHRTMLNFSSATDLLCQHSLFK", "test": "Inhibition of Haspin (unknown origin) at 100 nM"}, "[39]": {"target": "Interleukin-1 receptor-associated kinase 1 (Homo sapiens) (UniProt P51617)", "test": "Inhibition of IRAK1 (unknown origin) at 100 nM"}, "[40]": {"target": "Insulin receptor-related protein (Homo sapiens) (UniProt P14616)", "test": "Inhibition of IRR (unknown origin) at 100 nM"}, "[41]": {"target": "Tyrosine-protein kinase JAK3 (Homo sapiens) (UniProt P52333)", "test": "Inhibition of JAK3 (unknown origin) at 100 nM"}, "[42]": {"target": "Casein kinase II subunit alpha' (Homo sapiens) (UniProt P19784)", "test": "Inhibition of CK2alpha2 (unknown origin) at 100 nM"}}}
{"smiles": "CC1(C)OCc2c(Nc3n[nH]c4c(Cl)cccc34)nc(-c3cn[nH]c3)nc21", "values": [{"measurement": "Drug metabolism", "setting": "Hepatocyte", "result": "metabolite_detected"}]}
{"smiles": "CC1(C)OCc2c(Nc3n[nH]c4ccccc34)nc(-c3cn[nH]c3)nc21", "values": [{"measurement": "inhibition", "setting": "[1]", "result": 89.4, "unit": "%"}, {"measurement": "inhibition", "setting": "[2]", "result": 51.3, "unit": "%"}, {"measurement": "inhibition", "setting": "[3]", "result": 12.3, "unit": "%"}, {"measurement": "inhibition", "setting": "[4]", "result": 1.9, "unit": "%"}, {"measurement": "inhibition", "setting": "[5]", "result": 0.8, "unit": "%"}, {"measurement": "inhibition", "setting": "[6]", "result": 12.9, "unit": "%"}, {"measurement": "inhibition", "setting": "[7]", "result": 8.9, "unit": "%"}, {"measurement": "inhibition", "setting": "[8]", "result": 9.5, "unit": "%"}, {"measurement": "inhibition", "setting": "[9]", "result": 7.4, "unit": "%"}, {"measurement": "inhibition", "setting": "[10]", "result": -2.6, "unit": "%"}, {"measurement": "inhibition", "setting": "[11]", "result": 19, "unit": "%"}, {"measurement": "inhibition", "setting": "[12]", "result": 10.9, "unit": "%"}, {"measurement": "inhibition", "setting": "[13]", "result": 97.2, "unit": "%"}, {"measurement": "inhibition", "setting": "[14]", "result": 7.4, "unit": "%"}, {"measurement": "inhibition", "setting": "[15]", "result": 5.8, "unit": "%"}, {"measurement": "inhibition", "setting": "[16]", "result": 3.1, "unit": "%"}, {"measurement": "inhibition", "setting": "[17]", "result": 29.5, "unit": "%"}, {"measurement": "inhibition", "setting": "[18]", "result": 7.8, "unit": "%"}, {"measurement": "inhibition", "setting": "[19]", "result": 8.6, "unit": "%"}, {"measurement": "inhibition", "setting": "[20]", "result": 10.3, "unit": "%"}, {"measurement": "IC50", "setting": "[21]", "result": 600, "unit": "nM"}, {"measurement": "inhibition", "setting": "[22]", "result": -2.2, "unit": "%"}, {"measurement": "inhibition", "setting": "[23]", "result": 5.1, "unit": "%"}, {"measurement": "inhibition", "setting": "[24]", "result": 1.3, "unit": "%"}, {"measurement": "inhibition", "setting": "[25]", "result": 3.5, "unit": "%"}, {"measurement": "inhibition", "setting": "[26]", "result": 3.3, "unit": "%"}, {"measurement": "inhibition", "setting": "[27]", "result": 3.7, "unit": "%"}, {"measurement": "inhibition", "setting": "[28]", "result": -0.1, "unit": "%"}, {"measurement": "inhibition", "setting": "[29]", "result": -4.2, "unit": "%"}, {"measurement": "inhibition", "setting": "[30]", "result": 1.1, "unit": "%"}, {"measurement": "inhibition", "setting": "[31]", "result": -3.5, "unit": "%"}, {"measurement": "inhibition", "setting": "[32]", "result": 16.1, "unit": "%"}, {"measurement": "inhibition", "setting": "[33]", "result": 4.2, "unit": "%"}, {"measurement": "inhibition", "setting": "[34]", "result": 15.7, "unit": "%"}, {"measurement": "inhibition", "setting": "[35]", "result": 57.2, "unit": "%"}, {"measurement": "inhibition", "setting": "[36]", "result": 71.8, "unit": "%"}, {"measurement": "inhibition", "setting": "[37]", "result": 85.6, "unit": "%"}, {"measurement": "inhibition", "setting": "[38]", "result": 8.1, "unit": "%"}, {"measurement": "inhibition", "setting": "[39]", "result": 2.2, "unit": "%"}, {"measurement": "inhibition", "setting": "[40]", "result": 12, "unit": "%"}, {"measurement": "inhibition", "setting": "[41]", "result": 2.7, "unit": "%"}, {"measurement": "inhibition", "setting": "[42]", "result": 4.2, "unit": "%"}]}
